These results are taken from patent US20130029970A1 (priority 2009, published 2013).

Experiment [1] deals with T1, recombinant human cannabinoid receptor CB1 (Homo sapiens, UniProt P21554).
T1 construct: (cDNA clone) CNR01L000
Nature of the experiment: Cannabinoid receptor radioligand binding assay, [3H]-CP 55,940 displacement, hCB1. The procedure, abridged:
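Displacement of 0.5 nM [3H]-CP 55,940 (1 μM unlabeled CP 55,940 for nonspecific) measured by filtration and scintillation counting. Binding ran 90 min at room temperature in pH 7.5 Tris buffer with 0.1% fatty-acid-free BSA, using recombinant hCB1 HEK-293 membranes at 2-10 μg protein.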

In experiment [2] the target is T2, recombinant human cannabinoid receptor CB2 (Homo sapiens, UniProt P34972).
T2 construct: (cDNA clone) CNR0200000
Nature of the experiment: Cannabinoid receptor radioligand binding assay, [3H]-CP 55,940 displacement, hCB2. The procedure, abridged:
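Receptor source: membrane pellet (40,000×g) from transfected cells, stored in HEPES pH 7.4/MgCl2/EDTA/sucrose buffer.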

T1 sequence (P21554 whole entry): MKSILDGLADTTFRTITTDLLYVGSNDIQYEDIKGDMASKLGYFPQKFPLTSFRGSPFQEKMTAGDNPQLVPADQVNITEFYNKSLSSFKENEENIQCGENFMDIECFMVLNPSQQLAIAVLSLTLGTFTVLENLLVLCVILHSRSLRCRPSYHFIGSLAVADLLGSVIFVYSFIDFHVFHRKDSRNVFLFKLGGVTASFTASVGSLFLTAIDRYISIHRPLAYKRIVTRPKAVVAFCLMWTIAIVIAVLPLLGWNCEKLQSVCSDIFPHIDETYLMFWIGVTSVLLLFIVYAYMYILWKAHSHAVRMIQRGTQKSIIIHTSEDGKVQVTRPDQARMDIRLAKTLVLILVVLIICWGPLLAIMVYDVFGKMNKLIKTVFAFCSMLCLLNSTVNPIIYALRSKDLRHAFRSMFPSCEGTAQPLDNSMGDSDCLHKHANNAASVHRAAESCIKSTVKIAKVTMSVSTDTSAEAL
T2 sequence (P34972 whole entry): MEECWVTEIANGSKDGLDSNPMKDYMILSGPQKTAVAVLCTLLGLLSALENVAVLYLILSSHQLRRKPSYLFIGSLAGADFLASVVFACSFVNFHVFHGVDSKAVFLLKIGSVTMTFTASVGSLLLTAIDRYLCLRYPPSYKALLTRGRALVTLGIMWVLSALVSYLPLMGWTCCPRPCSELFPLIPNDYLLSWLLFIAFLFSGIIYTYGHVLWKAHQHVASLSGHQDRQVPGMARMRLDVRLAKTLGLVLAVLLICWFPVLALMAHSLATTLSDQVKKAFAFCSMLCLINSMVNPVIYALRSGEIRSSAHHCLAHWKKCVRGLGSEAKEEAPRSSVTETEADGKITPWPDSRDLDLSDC

Broadly, the IC50 is the point on the concentration scale where inhibition reaches its midpoint. As for `Cc1cc2cc(C(=O)c3cccc(Cl)c3)sc2n1CCN1CCOCC1` [Compound 4, (3-Chlorophenyl)(5-methyl-6-(2-morpholinoethyl)-6H-thieno[2,3-b]pyrrol-2-yl)methanone], the IC50 in experiment [1] fell in the range of 1000 to 10000 nM; in experiment [2], 100 to 1000 nM.

As to `Cc1cc2cc(C(=O)c3ccccc3)sc2n1CCN1CCOCC1` [Compound 7, (5-Methyl-6-(2-morpholinoethyl)-6H-thieno[2,3-b]pyrrol-2-yl)(phenyl)methanone], the IC50 is 1000 to 10000 nM in experiment [1] and 100 to 1000 nM in experiment [2].

For the compound `Cc1cc2cc(C(=O)c3ccc(Cl)cc3Cl)sc2n1CCN1CCOCC1` [Compound 10, (2,4-Dichlorophenyl)(5-methyl-6-(2-morpholinoethyl)-6H-thieno[2,3-b]pyrrol-2-yl)methanone], the results for the IC50 in experiment [1] and in experiment [2] were 100 to 1000 nM and less than 100 nM, respectively.

In the case of `Cc1ccccc1C(=O)c1cc2cc(C)n(CCN3CCOCC3)c2s1` [Compound 12, (5-Methyl-6-(2-morpholinoethyl)-6H-thieno[2,3-b]pyrrol-2-yl)(o-tolyl)methanone], the concentration for half-maximal inhibition (IC50) in experiment [1] was 1000 to 10000 nM; in experiment [2] it was less than 100 nM.

Regarding `CCn1c(C)cc2cc(C(=O)c3cccc(Cl)c3Cl)sc21` [Compound 19, (2,3-Dichlorophenyl)(6-ethyl-5-methyl-6H-thieno[2,3-b]pyrrol-2-yl)methanone], the IC50 in experiment [1] is more than 10000 nM; in experiment [2], 100 to 1000 nM.

In the case of `CCS(=O)(=O)n1c(C)cc2cc(C(=O)c3cccc(Cl)c3Cl)sc21` [Compound 25, (2,3-Dichlorophenyl)(6-(ethylsulfonyl)-5-methyl-6H-thieno[2,3-b]pyrrol-2-yl)methanone], the 50% inhibitory concentration (IC50) in experiment [1] was 1000 to 10000 nM; in experiment [2], less than 100 nM.

As to `COc1cccc(C(=O)c2cc3cc(C)n(CCN4CCOCC4)c3s2)c1` [Compound 26, (3-Methoxyphenyl)(5-methyl-6-(2-morpholinoethyl)-6H-thieno[2,3-b]pyrrol-2-yl)methanone], the 50% inhibitory concentration (IC50) in experiment [1] was 100 to 1000 nM; in experiment [2] it was less than 100 nM.

For `Cc1cc2cc(C(=O)c3cccc(Cl)c3Cl)sc2n1CC1CCOCC1` [Compound 31, (2,3-Dichlorophenyl)(5-methyl-6-((tetrahydro-2H-pyran-4-yl)methyl)-6H-thieno[2,3-b]pyrrol-2-yl)methanone], the IC50 in experiment [1] was 100 to 1000 nM; in experiment [2], less than 100 nM.

On to `Cc1cc2cc(Cc3cccc(Cl)c3Cl)sc2n1CCN1CCOCC1` [Compound 32, 4-(2-(2-(2,3-Dichlorobenzyl)-5-methyl-6H-thieno[2,3-b]pyrrol-6-yl)ethyl)morpholine], for which the IC50 was 1000 to 10000 nM in experiment [1] and less than 100 nM in experiment [2].

Turning to `Cc1cc2cc(C(=O)c3cccc(Cl)c3Cl)sc2n1CCCNS(C)(=O)=O` [Compound 37, N-(3-(2-(2,3-Dichlorobenzoyl)-5-methyl-6H-thieno[2,3-b]pyrrol-6-yl)propyl)methanesulfonamide], the IC50 in experiment [1] was more than 10000 nM; in experiment [2], less than 100 nM.

Consider `Cc1cc2cc(C(=O)c3cccc(Cl)c3Cl)sc2n1S(=O)(=O)C(C)C` [Compound 38, (2,3-Dichlorophenyl)(6-(isopropylsulfonyl)-5-methyl-6H-thieno[2,3-b]pyrrol-2-yl)methanone], for which the IC50 is 1000 to 10000 nM in experiment [1] and less than 100 nM in experiment [2].

`CCS(=O)(=O)n1c(C)cc2cc(C(=O)c3ccccc3Cl)sc21` [Compound 42, (2-Chlorophenyl)(6-(ethylsulfonyl)-5-methyl-6H-thieno[2,3-b]pyrrol-2-yl)methanone]: the values for the IC50 in experiment [1] and in experiment [2] were 1000 to 10000 nM and 100 to 1000 nM, respectively.

For `CCS(=O)(=O)n1c(C)cc2cc(C(=O)c3cccnc3Cl)sc21` [Compound 43, (2-Chloropyridin-3-yl)(6-(ethylsulfonyl)-5-methyl-6H-thieno[2,3-b]pyrrol-2-yl)methanone], the IC50 in experiment [1] was more than 10000 nM; in experiment [2], 100 to 1000 nM.

Consider `COc1ccc(C(=O)c2cc3cc(C)n(CCCNS(C)(=O)=O)c3s2)cc1` [Compound 44, N-(3-(2-(4-methoxybenzoyl)-5-methyl-6H-thieno[2,3-b]pyrrol-6-yl)propyl)methanesulfonamide], for which the IC50 in experiment [1] is 1000 to 10000 nM; in experiment [2], less than 100 nM.

For the compound `COc1ncccc1C(=O)c1cc2cc(C)n(CCN3CCOCC3)c2s1` [Compound 47, (2-Methoxypyridin-3-yl)(5-methyl-6-(2-morpholinoethyl)-6H-thieno[2,3-b]pyrrol-2-yl)methanone], the concentration for half-maximal inhibition (IC50) in experiment [1] was more than 10000 nM; in experiment [2] it was 1000 to 10000 nM.

For `COc1ccc(C(=O)c2cc3cc(C)n(S(=O)(=O)N(C)C)c3s2)cc1` [Compound 51, 2-(4-Methoxybenzoyl)-N,N,5-trimethyl-6H-thieno[2,3-b]pyrrole-6-sulfonamide], the figures for the IC50 in experiment [1] and in experiment [2] were 1000 to 10000 nM and less than 100 nM, respectively.

`Cc1cc2cc(C(=O)c3ccc(F)cc3)sc2n1CCN1CCOCC1` [Compound 54, (4-Fluorophenyl)(5-methyl-6-(2-morpholinoethyl)-6H-thieno[2,3-b]pyrrol-2-yl)methanone]: the IC50 in experiment [1] was in the range of 1000 to 10000 nM; in experiment [2], 100 to 1000 nM.

As to `CCS(=O)(=O)n1c(C)cc2cc(C(=O)c3ccc(OC)cc3)sc21` [Compound 56, (6-(Ethylsulfonyl)-5-methyl-6H-thieno[2,3-b]pyrrol-2-yl)(4-methoxyphenyl)methanone], the values for the IC50 in experiment [1] and in experiment [2] were more than 10000 nM and 100 to 1000 nM, respectively.

On to `COc1ccc(C(=O)c2cc3cc(C)n(CCN4CCOCC4)c3s2)cn1` [Compound 58, (6-Methoxypyridin-3-yl)(5-methyl-6-(2-morpholinoethyl)-6H-thieno[2,3-b]pyrrol-2-yl)methanone], for which the figures for the IC50 in experiment [1] and in experiment [2] were more than 10000 nM and 100 to 1000 nM, respectively.

With `Cc1cc2cc(C(=O)c3ccc(C(F)(F)F)cc3)sc2n1CCN1CCOCC1` [Compound 60, (5-Methyl-6-(2-morpholinoethyl)-6H-thieno[2,3-b]pyrrol-2-yl)(4-(trifluoromethyl)phenyl)methanone], the IC50 is more than 10000 nM in experiment [1] and 1000 to 10000 nM in experiment [2].

With `COc1ccc(C(=O)c2cc3cc(C)n(CCN4CCOCC4)c3s2)c(Cl)c1` [Compound 70, (2-Chloro-4-methoxyphenyl)(5-methyl-6-(2-morpholinoethyl)-6H-thieno[2,3-b]pyrrol-2-yl)methanone], the half-inhibitory concentration (IC50) in experiment [1] was 100 to 1000 nM; in experiment [2], less than 100 nM.

Turning to `COc1ccc(C(=O)c2cc3cc(C)n(Cc4ccccc4)c3s2)cc1` [Compound 84, (6-Benzyl-5-methyl-6H-thieno[2,3-b]pyrrol-2-yl)(4-methoxyphenyl)methanone], the results for the IC50 in experiment [1] and in experiment [2] were 1000 to 10000 nM and 100 to 1000 nM, respectively.

As for `COc1ccc(C(=O)c2cc3cc(C)n(CCCCl)c3s2)c(Cl)c1` [Compound 85, (2-Chloro-4-methoxyphenyl)(6-(3-chloropropyl)-5-methyl-6H-thieno[2,3-b]pyrrol-2-yl)methanone], the IC50 in experiment [1] was 1000 to 10000 nM; in experiment [2], less than 100 nM.

Regarding `COc1ccc(C(=O)c2cc3cc(C)n(CCCNS(C)(=O)=O)c3s2)c(F)c1` [Compound 87, N-(3-(2-(2-Fluoro-4-methoxybenzoyl)-5-methyl-6H-thieno[2,3-b]pyrrol-6-yl)propyl)methanesulfonamide], the IC50 in experiment [1] was more than 10000 nM; in experiment [2], 100 to 1000 nM.

Regarding `COc1ccc(C(=O)c2cc3cc(C)n(CCCNS(C)(=O)=O)c3s2)c(Cl)c1` [Compound 91, N-(3-(2-(2-Chloro-4-methoxybenzoyl)-5-methyl-6H-thieno[2,3-b]pyrrol-6-yl)propyl)methanesulfonamide], the IC50 in experiment [1] is more than 10000 nM; in experiment [2], less than 100 nM.

Regarding `Cc1ccc(C(=N)c2cc3cc(C)n(CCN4CCOCC4)c3s2)cc1` [Compound 121, (5-methyl-6-(2-morpholinoethyl)-6H-thieno[2,3-b]pyrrol-2-yl)(p-tolyl)methanimine], the IC50 in experiment [1] is 1000 to 10000 nM; in experiment [2], 100 to 1000 nM.

As for `COc1ccc(C(=O)c2cc3cc(C)n(CCN4CCOCC4)c3s2)cc1F` [Compound 128, (3-fluoro-4-methoxyphenyl)(5-methyl-6-(2-morpholinoethyl)-6H-thieno[2,3-b]pyrrol-2-yl)methanone], the IC50 lay in the range of 1000 to 10000 nM in experiment [1] and 100 to 1000 nM in experiment [2].

Regarding `Cc1cc2cc(C(=O)c3ccc(C#N)cc3)sc2n1CCN1CCOCC1` [Compound 129, 4-(5-methyl-6-(2-morpholinoethyl)-6H-thieno[2,3-b]pyrrole-2-carbonyl)benzonitrile], the IC50 in experiment [1] lay within 1000 to 10000 nM; in experiment [2], 100 to 1000 nM.

As to `COc1cc(F)ccc1C(=O)c1cc2cc(C)n(CCN3CCOCC3)c2s1` [Compound 133, (4-fluoro-2-methoxyphenyl)(5-methyl-6-(2-morpholinoethyl)-6H-thieno[2,3-b]pyrrol-2-yl)methanone], the IC50 was 100 to 1000 nM in experiment [1] and less than 100 nM in experiment [2].

With `Cc1cc2cc(C(=O)c3ccc(F)cc3F)sc2n1CCN1CCOCC1` [Compound 135, (2,4-difluorophenyl)(5-methyl-6-(2-morpholinoethyl)-6H-thieno[2,3-b]pyrrol-2-yl)methanone], the IC50 was 1000 to 10000 nM in experiment [1] and 100 to 1000 nM in experiment [2].

As for `COc1ccc(C(=O)c2cc3cc(C)n(CCN4CCOCC4)c3s2)c(C)n1` [Compound 136, (6-methoxy-2-methylpyridin-3-yl)(5-methyl-6-(2-morpholinoethyl)-6H-thieno[2,3-b]pyrrol-2-yl)methanone], the IC50 in experiment [1] is 1000 to 10000 nM; in experiment [2], less than 100 nM.

As for `COc1ccc(C(O)(c2cc3cc(C)n(CCN4CCOCC4)c3s2)C(F)(F)F)cc1` (stereo not shown) [Compound 138, 2,2,2-trifluoro-1-(4-methoxyphenyl)-1-(5-methyl-6-(2-morpholinoethyl)-6H-thieno[2,3-b]pyrrol-2-yl)ethanol], the IC50 was in the range of 1000 to 10000 nM in experiment [1] and 100 to 1000 nM in experiment [2].
